Where “and” joins values, the source holds several entries; their conditions need not be identical. Equal entries are not always repeated.
What was measured:
[1] = Critical micelle concentration by fluorescence staining with diphenylhexatriene (DPH); assay type: physicochemical; conditions: aqueous solution
Method: While a method for measuring CMC is not particularly limited, a method widely known in the art may be used, and the measurement may be performed by, for example, a fluorescence staining method using diphenylhexatriene (DPH).
(§1) Specifically, the critical micellar concentration (CMC) was measured using fluorescence staining and diphenylhexatriene (DPH), and the hydrodynamic radii (Rh) of the micelles formed by agents were measured through a dynamic light scattering (DLS) experiment. The measured results are shown in Tables 1 and 2, compared with a conventional amphiphilic molecule (detergent), DDM.

[2] = Hydrodynamic radius and size distribution of micelles by dynamic light scattering (DLS); assay type: physicochemical; conditions: for Rh (nm), hydrodynamic radius of micelles: 1.0 wt % stated for M-/O-XMAs (FIG. 37); for size distribution of micelles (number of micelle sets): FIGS. 36 and 37
Method: A method for measuring the radius of a micelle is not particularly limited, but a method well known in the art may be used, and for example, the measurement may be performed using a dynamic light scattering (DLS) experiment.
as §1

[3] = target: T1, melibiose permease (MelB) (Salmonella typhimurium, UniProt P30878); experiment: MelB extraction from membranes and thermostability, SDS-PAGE and western blotting; conditions: for MelBSt stabilization ability compared with DDM: 1.5 wt % detergent, 0, 45, 55 and 65° C.
T1 construct: made in house; host or cells: Salmonella typhimurium DW2 cells (ΔmelB and ΔlacZY) (so in the source); membrane preparation
T1 sequence (P30878 whole entry): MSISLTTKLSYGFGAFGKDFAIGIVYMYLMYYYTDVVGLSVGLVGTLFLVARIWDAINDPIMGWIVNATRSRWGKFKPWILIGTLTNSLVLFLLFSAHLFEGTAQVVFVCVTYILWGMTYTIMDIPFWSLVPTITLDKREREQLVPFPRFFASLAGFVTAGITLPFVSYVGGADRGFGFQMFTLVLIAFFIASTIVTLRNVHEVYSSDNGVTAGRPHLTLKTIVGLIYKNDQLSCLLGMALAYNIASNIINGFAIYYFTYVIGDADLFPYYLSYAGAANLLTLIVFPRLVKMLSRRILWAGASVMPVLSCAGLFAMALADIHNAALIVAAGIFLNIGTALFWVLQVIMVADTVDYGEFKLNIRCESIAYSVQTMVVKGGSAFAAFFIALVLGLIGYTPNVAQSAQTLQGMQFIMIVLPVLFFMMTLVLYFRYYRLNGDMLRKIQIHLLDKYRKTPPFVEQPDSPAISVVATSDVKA
Method: An experiment for measuring the structural stability of the Salmonella typhimurium melibiose permease (MelB) protein due to XMAs was performed. The MelB protein was extracted on a membrane using XMAs and DDM, and the amount and structure of the extracted protein were analyzed by SDS-PAGE and western blotting. A concentration of the used compound was 1.5 wt %, and the protein was extracted at a different temperature (0, 45, 55, or 65° C.) to evaluate two kinds of performance such as protein extraction efficiency and stabilization ability of the compound at the same time. Membrane samples that were not treated with XMAs or DDM were used as controls.
Specifically, MelBSt stability due to DDM and XMAs was evaluated according to the method described in the paper (P. S. Chae, et al., Nat. Methods 2010, 7, 1003-1008) written by the inventor in 2010. The protein (MelBSt) was produced using plasmid pK95ΔAHB/WT MelBSt/CH10 encoding wild-type MelB with a 10-His tag at the C-terminus and Salmonella typhimurium DW2 cells (ΔmelB and ΔlacZY). Cell growth and membrane preparation were carried out according to the method described in the paper (Nat. Commun. 2014, 5, 3009) written by A. S. Ethayathulla et al. A protein assay was performed using a Micro BCA kit (Thermo Scientific, Rockford, Ill.). To measure solubilization/stability, MelBSt-containing membrane samples (final protein concentration of 10 mg/mL) were incubated with a solubilization buffer (20 mM sodium phosphate, pH 7.5, 200 mM NaCl, 10% glycerol, 20 mM melibiose) and 1.5% (w/v) DDM, P-XMAs (P-XMA-C8, P-XMA-C9, P-XMA-C10, P-XMA-C11 and P-XMA-C12), M-XMAs (M-XMA-C11, M-XMA-C12, M-XMA-C14, M-XMA-C16 and M-XMA-C18) or O-XMAs (O-XMA-C11, O-XMA-C12, O-XMA-C14, O-XMA-C16 and O-XMA-C18) at four different temperatures (0, 45, 55 and 65° C.) for 90 minutes. Following ultracentrifugation at 355,590 g in a Beckman Optima™ MAX ultracentrifuge using a TLA-100 rotor for 45 minutes at 4° C., 20 μg proteins were separated by SDS-16% PAGE, and then immunoblotted with a Penta-His-HRP antibody (Qiagen, Germantown, Md.). MelBSt was detected using a SuperSignal West Pico chemiluminescent substrate by an ImageQuant LAS 4000 Biomolecular Imager (GE Health Care Life Sciences).

[4] = 1.5 wt % detergent, 55° C., 90 minutes
[5] = 1.5 wt % detergent, 0° C., 90 minutes
[6] = 1.5 wt % detergent, 45° C., 90 minutes

| SMILES | CMC [1] [µM] | CMC (wt %) [1] [wt %] | Rh (nm), hydrodynamic radius of micelles [2] | solubilized MelB retained, percentage of total protein in untreated membrane sample ([3]; 1.5 wt % detergent, 55° C.) | MelB protein extraction / maintained solubilization [3, 4] | MelB protein extraction efficiency [3, 5] | micelle size compared with DDM [2] | size distribution of micelles (number of micelle sets) [2] | MelBSt stabilization ability compared with DDM [3] | MelB protein extraction efficiency [3, 6] | MelB protein extraction ([3]; 1.5 wt % detergent, 65° C., 90 minutes) |
| --- | --- | --- | --- | --- | --- | --- | --- | --- | --- | --- | --- |
| CCCCCCCCCCCCCCC(CO[C@@H]1OC(CO)[C@@H](O[C@H]2OC(CO)[C@@H](O)C(O)C2O)C(O)C1O)(CO[C@@H]1OC(CO)[C@@H](O[C@H]2OC(CO)[C@@H](O)C(O)C2O)C(O)C1O)Cc1cccc(C[C@](CCCCCCCCCCCCCC)(CO[C@@H]2OC(CO)[C@@H](O[C@H]3OC(CO)[C@@H](O)C(O)C3O)C(O)C2O)CO[C@@H]2OC(CO)[C@@H](O[C@@H]3OC(CO)[C@@H](O)C(O)C3O)C(O)C2O)c1 (stereo partly shown) [M-XMA-C14] | ~2.5 | ~0.0005 | 3.6 ± 0.07 nm | approximately 70% | most effective | – | – | – | – | – | – |
| CCCCCCCCCCCCCCCC[C@@](CO[C@@H]1OC(CO)[C@@H](O[C@H]2OC(CO)[C@@H](O)C(O)C2O)C(O)C1O)(CO[C@@H]1OC(CO)[C@@H](O[C@@H]2OC(CO)[C@@H](O)C(O)C2O)C(O)C1O)Cc1cccc(C[C@](CCCCCCCCCCCCCCCC)(CO[C@@H]2OC(CO)[C@@H](O[C@H]3OC(CO)[C@@H](O)C(O)C3O)C(O)C2O)CO[C@@H]2CC(CO)[C@@H](O[C@H]3OC(CO)[C@@H](O)C(O)C3O)C(O)C2O)c1 (stereo partly shown) [M-XMA-C16] | ~2.0 | ~0.0004 | 3.9 ± 0.04 nm | – | – | protein extraction efficiency at almost the same level as DDM | – | – | – | – | – |
| CCCCCCCCCCCCCCCCCCC(CO[C@@H]1OC(CO)[C@@H](O[C@@H]2OC(CO)[C@@H](O)C(O)C2O)C(O)C1O)(CO[C@@H]1OC(CO)[C@@H](O[C@@H]2OC(CO)[C@@H](O)C(O)C2O)C(O)C1O)Cc1cccc(CC(CCCCCCCCCCCCCCCCCC)(CO[C@@H]2OC(CO)[C@@H](O[C@@H]3OC(CO)[C@@H](O)C(O)C3O)C(O)C2O)CO[C@@H]2OC(CO)[C@@H](O[C@@H]3OC(CO)[C@@H](O)C(O)C3O)C(O)C2O)c1 (stereo partly shown) [M-XMA-C18] | ~1.5 | ~0.0003 | 4.1 ± 0.04 nm | – | – | protein extraction efficiency at almost the same level as DDM | – | – | – | – | – |
| CCCCCCCCCCCC(CO[C@@H]1OC(CO)[C@@H](O[C@@H]2OC(CO)[C@@H](O)C(O)C2O)C(O)C1O)(CO[C@@H]1OC(CO)[C@@H](O[C@@H]2OC(CO)[C@@H](O)C(O)C2O)C(O)C1O)Cc1ccccc1C[C@](CCCCCCCCCCC)(CO[C@@H]1OC(CO)[C@@H](O[C@H]2OC(CO)[C@@H](O)C(O)C2O)C(O)C1O)CO[C@@H]1OC(CO)[C@@H](O[C@@H]2OC(CO)[C@@H](O)C(O)C2O)C(O)C1O (stereo partly shown) [O-XMA-C11] | – | ~0.0019 | 3.0 ± 0.02 nm | – | – | – | – | – | – | – | – |
| CCCCCCCCCCCCCCC(CO[C@@H]1OC(CO)[C@@H](O[C@@H]2OC(CO)[C@@H](O)C(O)C2O)C(O)C1O)(CO[C@@H]1OC(CO)[C@@H](O[C@@H]2OC(CO)[C@@H](O)C(O)C2O)C(O)C1O)Cc1ccccc1CC(CCCCCCCCCCCCCC)(CO[C@@H]1OC(CO)[C@@H](O[C@@H]2OC(CO)[C@@H](O)C(O)C2O)C(O)C1O)CO[C@@H]1OC(CO)[C@@H](O[C@@H]2OC(CO)[C@@H](O)C(O)C2O)C(O)C1O (stereo partly shown) [O-XMA-C14] | ~3.0 | ~0.0006 | 3.5 ± 0.04 nm | – | – | – | – | – | – | – | – |
| CCCCCCCCCCCCCCCCC(CO[C@@H]1OC(CO)[C@@H](O[C@@H]2OC(CO)[C@@H](O)C(O)C2O)C(O)C1O)(CO[C@@H]1OC(CO)[C@@H](O[C@@H]2OC(CO)[C@@H](O)C(O)C2O)C(O)C1O)Cc1ccccc1CC(CCCCCCCCCCCCCCCC)(CO[C@@H]1OC(CO)[C@@H](O[C@@H]2OC(CO)[C@@H](O)C(O)C2O)C(O)C1O)CO[C@@H]1OC(CO)[C@@H](O[C@@H]2OC(CO)[C@@H](O)C(O)C2O)C(O)C1O (stereo partly shown) [O-XMA-C16] | ~2.0 | ~0.0004 | 3.9 ± 0.06 nm | – | – | – | – | – | – | – | – |
| CCCCCCCCCCCCCCCCCCC(CO[C@@H]1OC(CO)[C@@H](O[C@@H]2OC(CO)[C@@H](O)C(O)C2O)C(O)C1O)(CO[C@@H]1OC(CO)[C@@H](O[C@@H]2OC(CO)[C@@H](O)C(O)C2O)C(O)C1O)Cc1ccccc1CC(CCCCCCCCCCCCCCCCCC)(CO[C@@H]1OC(CO)[C@@H](O[C@@H]2OC(CO)[C@@H](O)C(O)C2O)C(O)C1O)CO[C@@H]1OC(CO)[C@@H](O[C@@H]2OC(CO)[C@@H](O)C(O)C2O)C(O)C1O (stereo partly shown) [O-XMA-C18] | – | ~0.0003 | 3.9 ± 0.04 nm | – | – | – | – | – | – | – | – |
| CCCCCCCCC(CO[C@@H]1OC(CO)[C@@H](O[C@H]2OC(CO)[C@@H](O)C(O)C2O)C(O)C1O)(CO[C@@H]1OC(CO)[C@@H](O[C@H]2OC(CO)[C@@H](O)C(O)C2O)C(O)C1O)Cc1ccc(C[C@](CCCCCCCC)(CO[C@H]2CC(O)[C@H](O[C@H]3OC(CO)[C@@H](O)C(O)C3O)C(CO)O2)CO[C@@H]2OC(CO)[C@@H](O[C@H]3OC(CO)[C@@H](O)C(O)C3O)C(O)C2O)cc1 (stereo partly shown) [P-XMA-C8] | – | ~0.004 | 2.7 nm and 2.7 ± 0.04 nm | – | – | – | smaller than DDM | one set of micelles | – | – | – |
| CCCCCCCCCC(CO[C@@H]1OC(CO)[C@@H](O[C@H]2OC(CO)[C@@H](O)C(O)C2O)C(O)C1O)(CO[C@@H]1OC(CO)[C@@H](O[C@H]2OC(CO)[C@@H](O)C(O)C2O)C(O)C1O)Cc1ccc(CC(CCCCCCCCC)(CO[C@@H]2OC(CO)[C@@H](O[C@H]3OC(CO)[C@@H](O)C(O)C3O)C(O)C2O)CO[C@@H]2OC(CO)[C@@H](O[C@H]3OC(CO)[C@@H](O)C(O)C3O)C(O)C2O)cc1 (stereo partly shown) [P-XMA-C9] | ~10 | ~0.002 | 3.2 ± 0.01 nm | – | higher MelBSt extraction ability than DDM | – | smaller than DDM | one set of micelles | higher MelBSt stabilization ability than DDM | extraction efficiency at the same level as DDM | – |
| CCCCCCCCCCC(CO[C@@H]1OC(CO)[C@@H](O[C@H]2OC(CO)[C@@H](O)C(O)C2O)C(O)C1O)(CO[C@@H]1OC(CO)[C@@H](O[C@H]2OC(CO)[C@@H](O)C(O)C2O)C(O)C1O)Cc1ccc(CC(CCCCCCCCCC)(CO[C@@H]2OC(CO)[C@@H](O[C@H]3OC(CO)[C@@H](O)C(O)C3O)C(O)C2O)CO[C@@H]2OC(CO)[C@@H](O[C@H]3OC(CO)[C@@H](O)C(O)C3O)C(O)C2O)cc1 (stereo partly shown) [P-XMA-C10] | ~7 | ~0.001 | 3.5 ± 0.01 nm | – | higher MelBSt extraction ability than DDM | – | – | two sets of micelles having different radii | higher MelBSt stabilization ability than DDM | extraction efficiency at the same level as DDM | extracted MelBSt |

Reference: patent publication US10647738B2, “Xylene-based amphiphilic compound and use thereof” (Industry-University Cooperation Foundation Hanyang …, priority 2016, dated 2020)
